Test results from PubChem BioAssay (NCI).
Values joined by “and” are separate entries in the source; they are usually repeats but may differ in a detail not shown here. Equal values may be shown once.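 How tested: cells in 96-well plates exposed to compound for 48 hours at five concentrations. At the GI50, growth is halved. TGI is the concentration that stops growth completely.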

Key:
Test in all cases: growth of human tumour cells (NCI), 48 h
HCC-2998 colon = test system: HCC-2998 colon
BT-549 breast = test system: BT-549 breast
U251 CNS = test system: U251 CNS
MDA-MB-231 breast = test system: MDA-MB-231 breast
SF-295 CNS = test system: SF-295 CNS
SNB-19 CNS = test system: SNB-19 CNS
SF-268 CNS = test system: SF-268 CNS
A549 NSCLC = test system: A549 NSCLC
MCF7 breast = test system: MCF7 breast
OVCAR-8 ovarian = test system: OVCAR-8 ovarian

With `COc1cc(/C=C\c2cc(OC)c(OC)c(OC)c2)cc(NS(=O)(=O)c2ccc(Cl)cc2)c1OC` the GI50 (HCC-2998 colon) was 1980 nM, the TGI (HCC-2998 colon) was > 100 µM and the GI50 (BT-549 breast) was 966 nM. For the same molecule, the TGI (BT-549 breast) was 77 µM, the GI50 (U251 CNS) was 0.461 µM and the TGI (U251 CNS) was 20.7 µM. The GI50 (MDA-MB-231 breast) was 1160 nM, the TGI (MDA-MB-231 breast) was > 100 µM and the GI50 (SF-295 CNS) was 319 nM. For the same molecule, the TGI (SF-295 CNS) was 84 µM, the GI50 (SNB-19 CNS) was 745 nM and the TGI (SNB-19 CNS) was > 100 µM. For the same molecule, the GI50 (SF-268 CNS) was 1.1 µM, the TGI (SF-268 CNS) was > 100 µM and the GI50 (A549 NSCLC) was 0.716 µM. For the same molecule, the TGI (A549 NSCLC) was > 100 µM, the GI50 (MCF7 breast) was 375 nM and the TGI (MCF7 breast) was > 100 µM. The GI50 (OVCAR-8 ovarian) was 600 nM and the TGI (OVCAR-8 ovarian) was > 100 µM.
`CC1=C2[C@@H](CC1)[C@]1(C)O[C@@](C3CC3)(C[C@H]1OC(=O)CO)[C@H]2OC(=O)/C=C/c1ccccc1` showed a GI50 (HCC-2998 colon) of 16900 nM, a TGI (HCC-2998 colon) of 33.2 µM and a GI50 (BT-549 breast) of 148 nM. For the same molecule, the TGI (BT-549 breast) was 7.74 µM, the GI50 (U251 CNS) was 15.6 µM and the TGI (U251 CNS) was 29.3 µM. For the same molecule, the GI50 (MDA-MB-231 breast) was 18300 nM, the TGI (MDA-MB-231 breast) was 37.6 µM and the GI50 (SF-295 CNS) was 16100 nM. It also gave a TGI (SF-295 CNS) of 30.1 µM, a GI50 (SNB-19 CNS) of 17600 nM and a TGI (SNB-19 CNS) of 35.6 µM. The GI50 (SF-268 CNS) was 4.03 µM, the TGI (SF-268 CNS) was 23.1 µM and the GI50 (A549 NSCLC) was 13.2 µM. For the same molecule, the TGI (A549 NSCLC) was 27.3 µM, the GI50 (MCF7 breast) was 13000 nM and the TGI (MCF7 breast) was 31.3 µM. It also gave a GI50 (OVCAR-8 ovarian) of 83.4 nM and a TGI (OVCAR-8 ovarian) of 15.4 µM.
With `C#CC#CC#CC#CC#CC#CC#CC#CC[C@@H]1OC[C@@H](COC(=O)O[C@@H](C(=O)O[C@H]2C[C@@]3(O)[C@@H](OC(=O)c4ccccc4)[C@@H]4[C@]5(OC(C)=O)CO[C@@H]5C[C@H](O)[C@@]4(C)C(=O)[C@H](OC(C)=O)C(=C2C)C3(C)C)[C@@H](NC(=O)c2ccccc2)c2ccccc2)O1` the GI50 (HCC-2998 colon) was 289 nM, the TGI (HCC-2998 colon) was > 17.5 µM and the GI50 (BT-549 breast) was 639 nM. For the same molecule, the TGI (BT-549 breast) was > 33.3 µM, the GI50 (U251 CNS) was 0.316 µM and the TGI (U251 CNS) was > 33.3 µM. The GI50 (MDA-MB-231 breast) was 650 nM, the TGI (MDA-MB-231 breast) was > 33.3 µM and the GI50 (SF-295 CNS) was 579 nM. For the same molecule, the TGI (SF-295 CNS) was 2.41 µM, the GI50 (SNB-19 CNS) was 1080 nM and the TGI (SNB-19 CNS) was > 33.3 µM. The GI50 (SF-268 CNS) was 0.593 µM, the TGI (SF-268 CNS) was > 33.3 µM and the GI50 (A549 NSCLC) was 0.285 µM. The TGI (A549 NSCLC) was > 33.3 µM, the GI50 (MCF7 breast) was 87.2 nM and the TGI (MCF7 breast) was > 33.3 µM. For the same molecule, the GI50 (OVCAR-8 ovarian) was 460 nM and the TGI (OVCAR-8 ovarian) was > 33.3 µM.
With `CC1OC(OC2C(O[C@H]3CC[C@@]4(C)C(=CC[C@H]5[C@@H]6C[C@@H]7O[C@]8(CC[C@@H](C)CO8)[C@@H](C)[C@@H]7[C@@]6(C)CC[C@@H]54)C3)OC(CO)C(OC3OC(CO)C(O)C3O)C2O)C(O)C(O)C1O` (stereo partly drawn) the TGI (HCC-2998 colon) was 1.19 µM, the GI50 (BT-549 breast) was 1370 nM and the TGI (BT-549 breast) was 1.84 µM and 2.66 µM. The GI50 (U251 CNS) was 0.325 µM, the TGI (U251 CNS) was 1.44 µM and the GI50 (MDA-MB-231 breast) was 497 nM. The TGI (MDA-MB-231 breast) was 1.6 µM and 1.65 µM, the GI50 (SF-295 CNS) was 448 nM and the TGI (SF-295 CNS) was 1.53 µM and 1.62 µM. The GI50 (SNB-19 CNS) was 649 nM, the TGI (SNB-19 CNS) was 1.48 µM and 1.82 µM and the TGI (SF-268 CNS) was 1.61 µM and 2.03 µM. For the same molecule, the GI50 (A549 NSCLC) was 0.203 µM, the TGI (A549 NSCLC) was 1.3 µM and 0.367 µM and the GI50 (MCF7 breast) was 1110 nM. The TGI (MCF7 breast) was 1.52 µM and 2.3 µM, the GI50 (OVCAR-8 ovarian) was 423 nM and the TGI (OVCAR-8 ovarian) was 1.16 µM and 1.5 µM.
`CCSc1ncc(Br)c(Sc2nc(N)nc3nc[nH]c23)n1` showed a GI50 (HCC-2998 colon) of 2780 nM, a TGI (HCC-2998 colon) of 32.2 µM and a GI50 (BT-549 breast) of 4110 nM. For the same molecule, the TGI (BT-549 breast) was 67 µM, the GI50 (U251 CNS) was 18.1 µM and the TGI (U251 CNS) was > 100 µM. The GI50 (MDA-MB-231 breast) was 2800 nM, the TGI (MDA-MB-231 breast) was > 100 µM and the GI50 (SF-295 CNS) was 1820 nM. The TGI (SF-295 CNS) was > 100 µM, the GI50 (SNB-19 CNS) was > 100000 nM and the TGI (SNB-19 CNS) was > 100 µM. The GI50 (SF-268 CNS) was 3 µM, the TGI (SF-268 CNS) was > 100 µM and the GI50 (A549 NSCLC) was 21 µM. For the same molecule, the TGI (A549 NSCLC) was > 100 µM, the GI50 (MCF7 breast) was 3040 nM and the TGI (MCF7 breast) was > 100 µM. For the same molecule, the GI50 (OVCAR-8 ovarian) was 4540 nM and the TGI (OVCAR-8 ovarian) was > 100 µM.
With `Oc1ccccc1C=Nc1nc(OCc2ccccc2)nc2[nH]ncc12` the GI50 (HCC-2998 colon) was 20200 nM, the TGI (HCC-2998 colon) was 38.1 µM and the GI50 (BT-549 breast) was 33700 nM. The TGI (BT-549 breast) was 86.7 µM, the GI50 (U251 CNS) was 22.4 µM and the TGI (U251 CNS) was 62 µM. It also gave a GI50 (MDA-MB-231 breast) of 15000 nM, a TGI (MDA-MB-231 breast) of 37.3 µM and a GI50 (SF-295 CNS) of 19900 nM. For the same molecule, the TGI (SF-295 CNS) was 39.3 µM, the GI50 (SNB-19 CNS) was 37700 nM and the TGI (SNB-19 CNS) was > 100 µM. The GI50 (SF-268 CNS) was 20.1 µM, the TGI (SF-268 CNS) was 77.5 µM and the GI50 (A549 NSCLC) was 38.7 µM. For the same molecule, the TGI (A549 NSCLC) was > 100 µM, the GI50 (MCF7 breast) was 15500 nM and the TGI (MCF7 breast) was 35.2 µM. For the same molecule, the GI50 (OVCAR-8 ovarian) was 44300 nM and the TGI (OVCAR-8 ovarian) was > 100 µM.
